For one assay, the system named is Zucker Fatty (ZF) rats. Briefly: Oral carbohydrate loading test of Zucker Fatty rats: compound 3, voglibose and combination (plasma glucose and insulin). The class given is in vivo, rat. An excerpt: Four groups each containing 5 rats were formed. […] [table]

Read-outs that look alike come from different tables or passages of the source.

As to `CN(C)C(=N)N=C(N)N` [metformin, reference compound], in the assay with ZF rats (male ZF rats, overnight fasted, compound 3 0.3 mg/kg and/or metformin 50 mg/kg given 15 min before mixed carbohydrates 3.5 g/kg orally, area value over 120 min), the “suppression of increase in plasma glucose after oral carbohydrate loading, as compared to the vehicle group” value (“suppression of increase” below) worked out at 13%.
Turning to `Cc1cc(N2CCN([C@@H]3CN[C@H](C(=O)N4CCSC4)C3)CC2)n(-c2ccccc2)n1` [compound 3, 3-{(2S,4S)-4-[4-(3-methyl-1-phenyl-1H-pyrazol-5-yl)piperazin-1-yl]pyrrolidin-2-ylcarbonyl}thiazolidine], the “suppression of increase” value in the assay with Zucker Fatty (ZF) rats (rat, in vivo) was 33%; in the assay on ZF rats (rat, in vivo), 33%. In addition, in the assay on Zucker Fatty (ZF) rats (rat, in vivo, po, 0.1 mg/kg), the “increase of plasma insulin concentration as compared to the vehicle group” value is given as “about 3 fold”.
For `OCC(CO)N[C@H]1C[C@](O)(CO)[C@@H](O)[C@H](O)[C@H]1O` [voglibose, reference compound], the “suppression of increase” value in the assay with Zucker Fatty (ZF) rats (male ZF rats, overnight fasted, compound 3 0.1 mg/kg and/or voglibose 0.1 mg/kg given 15 min before mixed carbohydrates 3.5 g/kg orally, area value over 60 min) was determined as 34%.

Values taken from patent publication US8754032B2, “Concomitant pharmaceutical agents and use thereof” (Mitsubishi Tanabe Pharma Corporation, priority 2005, dated 2014).
